# Results from PubChem BioAssay (NCI).
#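 In this assay, cells in 96-well plates receive the compound at five concentrations for 48 hours. Endpoints are linearly interpolated between the surrounding concentrations. At the TGI there is no net growth.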
# Experiments:
# Experiment in all cases: growth of human tumour cells (NCI), 48 h
# OVCAR-3 ovarian = tested on: OVCAR-3 ovarian
# SNB-75 CNS = tested on: SNB-75 CNS
# COLO 205 colon = tested on: COLO 205 colon
# ACHN renal = tested on: ACHN renal
# HCT-116 colon = tested on: HCT-116 colon
# UACC-62 melanoma = tested on: UACC-62 melanoma
# MALME-3M melanoma = tested on: MALME-3M melanoma
# A549 NSCLC = tested on: A549 NSCLC
# OVCAR-8 ovarian = tested on: OVCAR-8 ovarian
# UACC-257 melanoma = tested on: UACC-257 melanoma
# CCRF-CEM leukemia = tested on: CCRF-CEM leukemia
# MDA-MB-435 = tested on: MDA-MB-435
# M14 melanoma = tested on: M14 melanoma
# UO-31 renal = tested on: UO-31 renal
# SK-MEL-2 melanoma = tested on: SK-MEL-2 melanoma
# SW-620 colon = tested on: SW-620 colon
# SK-MEL-28 melanoma = tested on: SK-MEL-28 melanoma
# SR leukemia = tested on: SR leukemia
# HCC-2998 colon = tested on: HCC-2998 colon
# MOLT-4 leukemia = tested on: MOLT-4 leukemia
# HS 578T breast = tested on: HS 578T breast
# A498 renal = tested on: A498 renal
# HOP-62 NSCLC = tested on: HOP-62 NSCLC
# SF-539 CNS = tested on: SF-539 CNS
# HT29 colon = tested on: HT29 colon
# NCI-H522 lung = tested on: NCI-H522 lung
# K-562 leukemia = tested on: K-562 leukemia
# SF-268 CNS = tested on: SF-268 CNS
# SK-MEL-5 melanoma = tested on: SK-MEL-5 melanoma
# MDA-N = tested on: MDA-N
# SN12C renal = tested on: SN12C renal
# HCT-15 colon = tested on: HCT-15 colon
# PC-3 prostate = tested on: PC-3 prostate
# RPMI-8226 leukemia = tested on: RPMI-8226 leukemia
# BT-549 breast = tested on: BT-549 breast
# RXF 393 renal = tested on: RXF 393 renal
# NCI-H460 lung = tested on: NCI-H460 lung
# T-47D breast = tested on: T-47D breast
# SNB-19 CNS = tested on: SNB-19 CNS
# SK-OV-3 ovarian = tested on: SK-OV-3 ovarian
# EKVX NSCLC = tested on: EKVX NSCLC
# IGROV1 ovarian = tested on: IGROV1 ovarian
# DU-145 prostate = tested on: DU-145 prostate
# OVCAR-4 ovarian = tested on: OVCAR-4 ovarian
# HOP-92 NSCLC = tested on: HOP-92 NSCLC
# HL-60(TB) leukemia = tested on: HL-60(TB) leukemia
# CAKI-1 renal = tested on: CAKI-1 renal
# 786-0 renal = tested on: 786-0 renal
# LOX IMVI melanoma = tested on: LOX IMVI melanoma
# NCI-H226 lung = tested on: NCI-H226 lung
# NCI-H23 lung = tested on: NCI-H23 lung
# OVCAR-5 ovarian = tested on: OVCAR-5 ovarian
# KM12 colon = tested on: KM12 colon
# SF-295 CNS = tested on: SF-295 CNS
# NCI/ADR-RES ovarian = tested on: NCI/ADR-RES ovarian
# MCF7 breast = tested on: MCF7 breast
smiles,measurement,setting,value
CCOc1cc(NC(C)=O)ccc1C(=O)NNS(=O)(=O)c1ccc(Cl)cc1Cl,TGI,OVCAR-3 ovarian,> 50 µM
same,TGI,SNB-75 CNS,> 50 µM
same,TGI,COLO 205 colon,> 50 µM
same,TGI,ACHN renal,> 50 µM
same,TGI,HCT-116 colon,> 50 µM
same,TGI,UACC-62 melanoma,> 50 µM
same,TGI,MALME-3M melanoma,> 50 µM
same,TGI,A549 NSCLC,> 50 µM
same,TGI,OVCAR-8 ovarian,> 50 µM
same,TGI,UACC-257 melanoma,> 50 µM
same,TGI,CCRF-CEM leukemia,> 50 µM
same,TGI,MDA-MB-435,45.1 µM
same,TGI,M14 melanoma,> 50 µM
same,TGI,UO-31 renal,> 50 µM
same,TGI,SK-MEL-2 melanoma,> 50 µM
same,TGI,SW-620 colon,> 50 µM
same,TGI,SK-MEL-28 melanoma,> 50 µM
same,TGI,SR leukemia,> 50 µM
same,TGI,HCC-2998 colon,> 50 µM
same,TGI,MOLT-4 leukemia,22 µM
same,TGI,HS 578T breast,> 50 µM
same,TGI,A498 renal,> 50 µM
same,TGI,HOP-62 NSCLC,> 50 µM
same,TGI,SF-539 CNS,> 50 µM
same,TGI,HT29 colon,> 50 µM
same,TGI,NCI-H522 lung,> 50 µM
same,TGI,K-562 leukemia,21.4 µM
same,TGI,SF-268 CNS,> 50 µM
same,TGI,SK-MEL-5 melanoma,> 50 µM
same,TGI,MDA-N,23.1 µM
same,TGI,SN12C renal,> 50 µM
same,TGI,HCT-15 colon,> 50 µM
same,TGI,PC-3 prostate,> 50 µM
same,TGI,RPMI-8226 leukemia,26.6 µM
same,TGI,BT-549 breast,> 50 µM
same,TGI,RXF 393 renal,> 50 µM
same,TGI,NCI-H460 lung,> 50 µM
same,TGI,T-47D breast,> 50 µM
same,TGI,SNB-19 CNS,> 50 µM
same,TGI,SK-OV-3 ovarian,> 50 µM
same,TGI,EKVX NSCLC,> 50 µM
same,TGI,IGROV1 ovarian,> 50 µM
same,TGI,DU-145 prostate,> 50 µM
same,TGI,OVCAR-4 ovarian,> 50 µM
same,TGI,HOP-92 NSCLC,> 50 µM
same,TGI,HL-60(TB) leukemia,> 50 µM
same,TGI,CAKI-1 renal,> 50 µM
same,TGI,786-0 renal,> 50 µM
same,TGI,LOX IMVI melanoma,> 50 µM
same,TGI,NCI-H226 lung,> 50 µM
same,TGI,NCI-H23 lung,> 50 µM
same,TGI,OVCAR-5 ovarian,> 50 µM
same,TGI,KM12 colon,> 50 µM
same,TGI,SF-295 CNS,> 50 µM
same,TGI,NCI/ADR-RES ovarian,> 50 µM
same,TGI,MCF7 breast,> 50 µM
CCC(=O)Nc1cccc(NC(=O)c2c(Cl)c(Cl)c(Cl)c(Cl)c2-c2nc3ccccc3[nH]2)c1,TGI,OVCAR-3 ovarian,> 100 µM
same,TGI,SNB-75 CNS,> 100 µM
same,TGI,COLO 205 colon,> 100 µM
same,TGI,ACHN renal,> 100 µM
same,TGI,HCT-116 colon,> 100 µM
same,TGI,UACC-62 melanoma,> 100 µM
same,TGI,MALME-3M melanoma,> 100 µM
same,TGI,A549 NSCLC,> 100 µM
same,TGI,OVCAR-8 ovarian,> 100 µM
same,TGI,UACC-257 melanoma,> 100 µM
same,TGI,CCRF-CEM leukemia,> 100 µM
same,TGI,MDA-MB-435,> 100 µM
same,TGI,M14 melanoma,> 100 µM
same,TGI,UO-31 renal,> 100 µM
same,TGI,SK-MEL-2 melanoma,> 100 µM
same,TGI,SW-620 colon,> 100 µM
same,TGI,SK-MEL-28 melanoma,> 100 µM
same,TGI,SR leukemia,> 100 µM
same,TGI,HCC-2998 colon,> 100 µM
same,TGI,MOLT-4 leukemia,> 100 µM
same,TGI,HS 578T breast,> 100 µM
same,TGI,A498 renal,> 100 µM
same,TGI,SF-539 CNS,> 100 µM
same,TGI,HT29 colon,> 100 µM
same,TGI,NCI-H522 lung,> 100 µM
same,TGI,K-562 leukemia,> 100 µM
same,TGI,SF-268 CNS,> 100 µM
same,TGI,SK-MEL-5 melanoma,> 100 µM
same,TGI,MDA-N,> 100 µM
same,TGI,SN12C renal,> 100 µM
same,TGI,HCT-15 colon,> 100 µM
same,TGI,PC-3 prostate,> 100 µM
same,TGI,RPMI-8226 leukemia,> 100 µM
same,TGI,BT-549 breast,> 100 µM
same,TGI,RXF 393 renal,> 100 µM
same,TGI,NCI-H460 lung,> 100 µM
same,TGI,T-47D breast,> 100 µM
same,TGI,SNB-19 CNS,> 100 µM
same,TGI,EKVX NSCLC,> 100 µM
same,TGI,IGROV1 ovarian,> 100 µM
same,TGI,DU-145 prostate,> 100 µM
same,TGI,OVCAR-4 ovarian,> 100 µM
same,TGI,HOP-92 NSCLC,66.5 µM
same,TGI,HL-60(TB) leukemia,> 100 µM
same,TGI,CAKI-1 renal,> 100 µM
same,TGI,786-0 renal,> 100 µM
same,TGI,LOX IMVI melanoma,> 100 µM
same,TGI,NCI-H23 lung,> 100 µM
same,TGI,OVCAR-5 ovarian,> 100 µM
same,TGI,KM12 colon,> 100 µM
same,TGI,SF-295 CNS,> 100 µM
same,TGI,NCI/ADR-RES ovarian,> 100 µM
same,TGI,MCF7 breast,> 100 µM
C(=N\c1cc2cc(Sc3ccccc3)ccc2[nH]1)/c1ccccc1,TGI,OVCAR-3 ovarian,> 12.5 µM
same,TGI,SNB-75 CNS,> 12.5 µM
same,TGI,ACHN renal,> 12.5 µM
same,TGI,HCT-116 colon,> 12.5 µM
same,TGI,UACC-62 melanoma,> 12.5 µM
same,TGI,MALME-3M melanoma,> 12.5 µM
same,TGI,A549 NSCLC,> 12.5 µM
same,TGI,OVCAR-8 ovarian,> 12.5 µM
same,TGI,UACC-257 melanoma,> 12.5 µM
same,TGI,CCRF-CEM leukemia,> 12.5 µM
same,TGI,MDA-MB-435,> 12.5 µM
same,TGI,M14 melanoma,> 12.5 µM
same,TGI,SW-620 colon,> 12.5 µM
same,TGI,SK-MEL-28 melanoma,> 12.5 µM
same,TGI,SR leukemia,> 12.5 µM
same,TGI,HCC-2998 colon,> 12.5 µM
same,TGI,MOLT-4 leukemia,> 12.5 µM
same,TGI,HS 578T breast,> 12.5 µM
same,TGI,A498 renal,> 12.5 µM
same,TGI,HOP-62 NSCLC,> 12.5 µM
same,TGI,SF-539 CNS,> 12.5 µM
same,TGI,HT29 colon,> 12.5 µM
same,TGI,NCI-H522 lung,> 12.5 µM
same,TGI,K-562 leukemia,> 12.5 µM
same,TGI,SF-268 CNS,> 12.5 µM
same,TGI,SK-MEL-5 melanoma,> 12.5 µM
same,TGI,MDA-N,> 12.5 µM
same,TGI,SN12C renal,> 12.5 µM
same,TGI,HCT-15 colon,> 12.5 µM
same,TGI,PC-3 prostate,> 12.5 µM
same,TGI,RPMI-8226 leukemia,> 12.5 µM
same,TGI,BT-549 breast,> 12.5 µM
same,TGI,RXF 393 renal,> 12.5 µM
same,TGI,T-47D breast,> 12.5 µM
same,TGI,SNB-19 CNS,> 12.5 µM
same,TGI,EKVX NSCLC,> 12.5 µM
same,TGI,DU-145 prostate,> 12.5 µM
same,TGI,OVCAR-4 ovarian,> 12.5 µM
same,TGI,HOP-92 NSCLC,> 12.5 µM
same,TGI,HL-60(TB) leukemia,> 12.5 µM
same,TGI,CAKI-1 renal,> 12.5 µM
same,TGI,786-0 renal,> 12.5 µM
same,TGI,LOX IMVI melanoma,> 12.5 µM
same,TGI,NCI-H23 lung,> 12.5 µM
same,TGI,KM12 colon,> 12.5 µM
same,TGI,SF-295 CNS,> 12.5 µM
same,TGI,NCI/ADR-RES ovarian,> 12.5 µM
same,TGI,MCF7 breast,> 12.5 µM
